Results reported in US8815796B2, “Polyheterocyclic compounds highly potent as HCV inhibitors” (AB Pharma Ltd., priority 2010, dated 2014).

Each compound was assayed against T1, HCV NS3-4A protease (Hepatitis C virus genotype 1a, UniProt P27958) (assay: HCV NS3-4A protease assay in vitro (FRET-S substrate)). Conditions: not given.
T1 construct: HCV NS3-4A protease
Assay type: biochemical
Protocol: HCV NS3-4A Protease Assay In Vitro.
The assay was conducted in Buffer A containing 30 mM NaCl, 5 mM CaCl2, 10 mM DTT, 50 mM Tris (pH7.8), using the Ac-Asp-Glu-Asp(EDANS)-Glu-Glu-Abu-ψ-[COO]-Ala-Ser-Lys (DABCYL)-NH2 (FRET-S) fluorescent peptide (AnaSpec, USA) as substrate. Briefly, 140 μL buffer A, 20 μL compounds dissolved in buffer A with different concentration and 20 μL HCV NS3-4A protease diluted in buffer A were added into 96-well plate respectively and mixed well. The reaction was initiate with adding 20 μL of FRET-S. Reactions were continuously monitored at 37° C. using a BMG Polarstar Galaxy (MTX Lab Systems, Inc. USA), with excitation and emission filters of 355 nm and 520 nm, respectively. The 50% inhibitory concentration (IC50) was calculated with Reed & Muench methods.

T1 sequence (P27958 1027-1657): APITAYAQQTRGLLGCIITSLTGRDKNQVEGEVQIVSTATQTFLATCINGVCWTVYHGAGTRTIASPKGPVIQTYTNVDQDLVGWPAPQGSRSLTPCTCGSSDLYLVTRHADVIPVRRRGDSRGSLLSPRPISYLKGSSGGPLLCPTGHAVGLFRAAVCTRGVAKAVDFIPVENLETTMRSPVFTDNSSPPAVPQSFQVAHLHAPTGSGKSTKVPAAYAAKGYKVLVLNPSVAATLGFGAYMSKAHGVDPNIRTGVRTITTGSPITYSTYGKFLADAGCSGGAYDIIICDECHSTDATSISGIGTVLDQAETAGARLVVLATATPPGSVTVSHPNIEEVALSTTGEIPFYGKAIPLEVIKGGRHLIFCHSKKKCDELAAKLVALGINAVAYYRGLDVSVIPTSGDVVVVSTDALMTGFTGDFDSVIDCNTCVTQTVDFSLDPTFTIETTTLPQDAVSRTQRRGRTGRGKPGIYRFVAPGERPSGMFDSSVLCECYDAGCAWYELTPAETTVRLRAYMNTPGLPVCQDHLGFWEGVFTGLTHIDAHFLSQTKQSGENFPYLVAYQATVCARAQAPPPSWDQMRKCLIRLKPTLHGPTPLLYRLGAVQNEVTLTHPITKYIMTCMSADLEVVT
T1 sequence (P27958 1658-1711): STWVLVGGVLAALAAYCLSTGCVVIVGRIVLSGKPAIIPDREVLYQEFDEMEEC

| SMILES | IC50 [nM] |
| --- | --- |
| C=C[C@H]1C[C@@]1(NC(=O)C1C[C@@H](OC(=O)N2Cc3cc4c(cc3C2)OCO4)CN1C(=O)[C@@H](NC(=O)[C@@H](NC(=O)c1cnccn1)C1CCCCC1)C(C)(C)C)C(=O)NS(=O)(=O)C1CC1 (some centres unmarked) [Compound 30a] | < 30 |
| CC[C@H]1C[C@@]1(NC(=O)C1C[C@@H](OC(=O)N2Cc3cc4c(cc3C2)OCO4)CN1C(=O)[C@@H](NC(=O)[C@@H](NC(=O)OCC1c2ccccc2-c2ccccc21)C1CCCCC1)C(C)(C)C)C(=O)NS(=O)(=O)C1CC1 (some centres unmarked) [Compound 30aa] | < 30 |
| C=C[C@H]1C[C@@]1(NC(=O)C1C[C@@H](OC(=O)N2Cc3cc4c(cc3C2)OCO4)CN1C(=O)[C@@H](NC(=O)[C@@H](NC(=O)NC(C)(C)C)C1CCCCC1)C(C)(C)C)C(=O)NS(=O)(=O)C1CC1 (some centres unmarked) [Compound 30ab] | < 30 |
| CC[C@H]1C[C@@]1(NC(=O)C1C[C@@H](OC(=O)N2Cc3cc4c(cc3C2)OCO4)CN1C(=O)[C@@H](NC(=O)[C@@H](NC(=O)NC(C)(C)C)C1CCCCC1)C(C)(C)C)C(=O)NS(=O)(=O)C1CC1 (some centres unmarked) [Compound 30ac] | < 30 |
| CC[C@H]1C[C@@]1(NC(=O)C1C[C@@H](OC(=O)N2Cc3cc4c(cc3C2)OCCCO4)CN1C(=O)[C@@H](NC(=O)[C@@H](NC(=O)OC(C)(C)C)C1CCCCC1)C(C)(C)C)C(=O)NS(=O)(=O)C1CC1 (some centres unmarked) [Compound 30ad] | 30 to 200 |
| CC[C@H]1C[C@@]1(NC(=O)C1C[C@@H](OC(=O)N2Cc3cc4c(cc3C2)OCCCO4)CN1C(=O)[C@@H](NC(=O)[C@@H](NC(=O)OC1CCCC1)C1CCCCC1)C(C)(C)C)C(=O)NS(=O)(=O)C1CC1 (some centres unmarked) [Compound 30ae] | 30 to 200 |
| CC[C@H]1C[C@@]1(NC(=O)C1C[C@@H](OC(=O)N2Cc3cc4c(cc3C2)OCO4)CN1C(=O)[C@@H](NC(=O)[C@@H](NC(=O)c1cnccn1)C1CCCCC1)C(C)(C)C)C(=O)NS(=O)(=O)C1CC1 (some centres unmarked) [Compound 30b] | < 30 |
| C=C[C@H]1C[C@@]1(NC(=O)C1C[C@@H](OC(=O)N2Cc3cc4c(cc3C2)OCCO4)CN1C(=O)[C@@H](NC(=O)[C@@H](NC(=O)c1cnccn1)C1CCCCC1)C(C)(C)C)C(=O)NS(=O)(=O)C1CC1 (some centres unmarked) [Compound 30c] | < 30 |
| C=C[C@H]1C[C@@]1(NC(=O)C1C[C@@H](OC(=O)N2Cc3ccc4c(c3C2)OCCO4)CN1C(=O)[C@@H](NC(=O)[C@@H](NC(=O)c1cnccn1)C1CCCCC1)C(C)(C)C)C(=O)NS(=O)(=O)C1CC1 (some centres unmarked) [Compound 30d] | < 30 |
| C=C[C@H]1C[C@@]1(NC(=O)C1C[C@@H](OC(=O)N2Cc3ccc4c(c3C2)OCO4)CN1C(=O)[C@@H](NC(=O)[C@@H](NC(=O)c1cnccn1)C1CCCCC1)C(C)(C)C)C(=O)NS(=O)(=O)C1CC1 (some centres unmarked) [Compound 30e] | < 30 |

Same assay, conditions: HCV NS3-4A protease inhibition, 37° C., class symbols; read-out: NS3-NS4A IC50

| SMILES | IC50 [nM] |
| --- | --- |
| CC(C)OC(=O)N[C@H]1CCCCC/C=C\[C@@H]2C[C@@]2(C(=O)NS(=O)(=O)C2CC2)NC(=O)[C@@H]2C[C@@H](OC(=O)N3Cc4cc5c(cc4C3)OCO5)CN2C1=O [Compound 12q] | < 30 |
| O=C(N[C@H]1CCCCC/C=C\[C@@H]2C[C@@]2(C(=O)NS(=O)(=O)C2CC2)NC(=O)[C@@H]2C[C@@H](OC(=O)N3Cc4cc5c(cc4C3)OCO5)CN2C1=O)OC1CCCC1 [Compound 12r] | < 30 |
| CC(C)(C)OC(=O)N([C@H]1CCCCC/C=C\[C@@H]2C[C@@]2(C(=O)NS(=O)(=O)C2CC2)NC(=O)[C@@H]2C[C@@H](OC(=O)N3Cc4cc5c(cc4C3)OCO5)CN2C1=O)S(C)(=O)=O [Compound 12s] | < 30 |
| CC(C)(C)OC(=O)N([C@H]1CCCCC/C=C\[C@@H]2C[C@@]2(C(=O)NS(=O)(=O)C2CC2)NC(=O)[C@@H]2C[C@@H](OC(=O)N3Cc4ccc5c(c4C3)OCO5)CN2C1=O)S(C)(=O)=O [Compound 12t] | < 30 |
| CC(C)(C)OC(=O)N([C@H]1CCCCC/C=C\[C@@H]2C[C@@]2(C(=O)NS(=O)(=O)C2CC2)NC(=O)[C@@H]2C[C@@H](OC(=O)N3Cc4cccc(F)c4C3)CN2C1=O)S(C)(=O)=O [Compound 12u] | < 30 |
| O=C1N[C@]2(C(=O)NS(=O)(=O)C3CC3)C[C@H]2/C=C\CCCCC[C@H](Nc2ccccc2)C(=O)N2C[C@H](OC(=O)N3Cc4cc5c(cc4C3)OCO5)C[C@@H]12 [Compound 15a] | < 30 |
| O=C1N[C@]2(C(=O)NS(=O)(=O)C3CC3)C[C@H]2/C=C\CCCCC[C@H](Nc2cccc(F)c2)C(=O)N2C[C@H](OC(=O)N3Cc4cc5c(cc4C3)OCO5)C[C@@H]12 [Compound 15b] | < 30 |
| O=C1N[C@]2(C(=O)NS(=O)(=O)C3CC3)C[C@H]2/C=C\CCCCC[C@H](NS(=O)(=O)c2ccc(Cl)cc2)C(=O)N2C[C@H](OC(=O)N3Cc4cc5c(cc4C3)OCO5)C[C@@H]12 [Compound 16a] | < 30 |
| O=C1N[C@]2(C(=O)NS(=O)(=O)C3CC3)C[C@H]2/C=C\CCCCC[C@H](NS(=O)(=O)c2ccccc2)C(=O)N2C[C@H](OC(=O)N3Cc4cc5c(cc4C3)OCO5)C[C@@H]12 [Compound 16b] | < 30 |

Second part, the compound after the results:

| IC50 [nM] | SMILES |
| --- | --- |
| < 30 | COc1ccc(S(=O)(=O)N[C@H]2CCCCC/C=C\[C@@H]3C[C@@]3(C(=O)NS(=O)(=O)C3CC3)NC(=O)[C@@H]3C[C@@H](OC(=O)N4Cc5cc6c(cc5C4)OCO6)CN3C2=O)cc1 [Compound 16c] |
| 30 to 200 | O=C1N[C@]2(C(=O)NS(=O)(=O)C3CC3)C[C@H]2/C=C\CCCCN(C2CC2)C(=O)C2C[C@H](OC(=O)N3Cc4cc5c(cc4C3)OCO5)C[C@@H]12 (some centres unmarked) [Compound 21a] |
| 30 to 200 | O=C1N[C@]2(C(=O)NS(=O)(=O)C3CC3)C[C@H]2/C=C\CCCCCN(C2CC2)C(=O)C2C[C@H](OC(=O)N3Cc4cc5c(cc4C3)OCO5)C[C@@H]12 (some centres unmarked) [Compound 21b] |
| < 30 | CN1CCCC/C=C\[C@@H]2C[C@@]2(C(=O)NS(=O)(=O)C2CC2)NC(=O)[C@@H]2C[C@@H](OC(=O)N3Cc4cc5c(cc4C3)OCO5)CC2C1=O (some centres unmarked) [Compound 21c] |
| 30 to 200 | O=C1N[C@]2(C(=O)NS(=O)(=O)C3CC3)C[C@H]2/C=C\CCCCCN(C2CC2)C(=O)C2C[C@H](OC(=O)N3Cc4ccc5c(c4C3)OCO5)C[C@@H]12 (some centres unmarked) [Compound 21d] |
| < 30 | CN1CCCCC/C=C\[C@@H]2C[C@@]2(C(=O)NS(=O)(=O)C2CC2)NC(=O)[C@@H]2C[C@@H](OC(=O)N3Cc4cc5c(cc4C3)OCO5)CC2C1=O (some centres unmarked) [Compound 21e] |
| 30 to 200 | O=C1N[C@]2(C(=O)NS(=O)(=O)C3CC3)C[C@H]2/C=C\CCCCN(C2CC2)C(=O)C2C[C@H](OC(=O)N3Cc4ccc5c(c4C3)OCO5)C[C@@H]12 (some centres unmarked) [Compound 21f] |
| 30 to 200 | CN1CCCCC/C=C\[C@@H]2C[C@@]2(C(=O)NS(=O)(=O)C2CC2)NC(=O)[C@@H]2CC(OC(=O)N3Cc4cccc(F)c4C3)CN2C1=O (some centres unmarked) [Compound 27-Ref, reference compound] |
| 30 to 200 | O=C1N[C@]2(C(=O)NS(=O)(=O)C3CC3)C[C@H]2/C=C\CCCCCN(C2CC2)C(=O)N2CC(OC(=O)N3Cc4cccc(F)c4C3)C[C@@H]12 (some centres unmarked) [Compound 27-Ref-2, reference compound] |
| 30 to 200 | CN1CCCCC/C=C\[C@@H]2C[C@@]2(C(=O)NS(=O)(=O)C2CC2)NC(=O)[C@@H]2CC(OC(=O)N3Cc4cc5c(cc4C3)OCO5)CN2C1=O (some centres unmarked) [Compound 27a] |
| 30 to 200 | CN1CCCCC/C=C\[C@@H]2C[C@@]2(C(=O)NS(=O)(=O)C2CC2)NC(=O)[C@@H]2CC(OC(=O)N3Cc4cc5c(cc4C3)OCCO5)CN2C1=O (some centres unmarked) [Compound 27b] |
| 30 to 200 | CC(C)S(=O)(=O)NC(=O)[C@@]12C[C@H]1/C=C\CCCCCN(C)C(=O)N1CC(OC(=O)N3Cc4cc5c(cc4C3)OCO5)C[C@H]1C(=O)N2 (some centres unmarked) [Compound 27c] |
| < 30 | C=C[C@H]1C[C@@]1(NC(=O)C1C[C@@H](OC(=O)N2Cc3cc4c(cc3C2)OCO4)CN1C(=O)[C@@H](NC(=O)OC(C)(C)C)C(C)(C)C)C(=O)NS(=O)(=O)C1CC1 (some centres unmarked) [Compound 30af] |
| < 30 | CC[C@H]1C[C@@]1(NC(=O)C1C[C@@H](OC(=O)N2Cc3cc4c(cc3C2)OCO4)CN1C(=O)[C@@H](NC(=O)OC(C)(C)C)C(C)(C)C)C(=O)NS(=O)(=O)C1CC1 (some centres unmarked) [Compound 30ag] |
| < 30 | C=C[C@H]1C[C@@]1(NC(=O)C1C[C@@H](OC(=O)N2Cc3ccc4c(c3C2)OCO4)CN1C(=O)[C@@H](NC(=O)OC(C)(C)C)C(C)(C)C)C(=O)NS(=O)(=O)C1CC1 (some centres unmarked) [Compound 30ah] |
| < 30 | C=C[C@H]1C[C@@]1(NC(=O)C1C[C@@H](OC(=O)N2Cc3cccc(F)c3C2)CN1C(=O)[C@@H](NC(=O)OC(C)(C)C)C(C)(C)C)C(=O)NS(=O)(=O)C1CC1 (some centres unmarked) [Compound 30aj] |
| < 30 | C=C[C@H]1C[C@@]1(NC(=O)C1C[C@@H](OC(=O)N2Cc3cc4c(cc3C2)OCO4)CN1C(=O)[C@@H](NC(=O)OC1CCCC1)C(C)(C)C)C(=O)NS(=O)(=O)C1CC1 (some centres unmarked) [Compound 30ak] |
| < 30 | CC[C@H]1C[C@@]1(NC(=O)C1C[C@@H](OC(=O)N2Cc3cc4c(cc3C2)OCO4)CN1C(=O)[C@@H](NC(=O)OC1CCCC1)C(C)(C)C)C(=O)NS(=O)(=O)C1CC1 (some centres unmarked) [Compound 30am] |
| < 30 | C=C[C@H]1C[C@@]1(NC(=O)C1C[C@@H](OC(=O)N2Cc3ccc4c(c3C2)OCO4)CN1C(=O)[C@@H](NC(=O)OC1CCCC1)C(C)(C)C)C(=O)NS(=O)(=O)C1CC1 (some centres unmarked) [Compound 30an] |
| < 30 | CC[C@H]1C[C@@]1(NC(=O)C1C[C@@H](OC(=O)N(C)Cc2ccc3c(c2)OCO3)CN1C(=O)[C@@H](NC(=O)OC1CCCC1)C(C)(C)C)C(=O)NS(=O)(=O)C1CC1 (some centres unmarked) [Compound 30ap] |
| < 30 | C=C[C@H]1C[C@@]1(NC(=O)C1C[C@@H](OC(=O)N2Cc3cccc(F)c3C2)CN1C(=O)[C@@H](NC(=O)OC1CCCC1)C(C)(C)C)C(=O)NS(=O)(=O)C1CC1 (some centres unmarked) [Compound 30aq] |
| < 30 | C=C[C@H]1C[C@@]1(NC(=O)C1C[C@@H](OC(=O)N2Cc3cc4c(cc3C2)OCO4)CN1C(=O)[C@@H](NC(=O)NC(C)(C)C)C(C)(C)C)C(=O)NS(=O)(=O)C1CC1 (some centres unmarked) [Compound 30ar] |
